The text below walks through data of PubChem BioAssay (NCI).

What all share (assay): NCI tumour cell line growth inhibition, 48 h
The test system of assay [1] is SF-539 CNS.
Assay [2] deals with SW-620 colon.
Assay [3] has as its system NCI-H226 lung.
The test system of assay [4] is LOX IMVI melanoma.
The test system of assay [5] is MCF7 breast.
The subject of assay [6] is U251 CNS.
In assay [7] the test system is EKVX NSCLC.
For assay [8], the system named is KM12 colon.
Assay [9] relates to UO-31 renal.
Assay [10] concerns OVCAR-8 ovarian.

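A five-concentration, 48-hour dose response in 96-well plates underlies each endpoint, interpolated linearly between surrounding concentrations. At the GI50, growth is halved. At the TGI there is no net growth.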 Where a SMILES comes first, the peptide text is derived from it. [ ]: non-standard residue; d: D form. The star is where a group is joined. ξ: configuration not given here. ξW = NC(Cc1c[nH]c2ccccc12)C(=O)O; X30 = O=C(O)[C@H]1CCC[C@H]1N*; ξF = NC(Cc1ccccc1)C(=O)O; Boc = CC(C)(C)OC(=O)*; ξK = NCCCCC(N)C(=O)O; ξT = CC(O)C(N)C(=O)O; tBu = CC(C)(C)* Bounds are passed on as bounds.

`O=C(O)c1nc2cc(C(F)(F)F)ccc2[nH]c1=O`: the TGI in assay [1], in [2], in assay [3], in [4], in [5] and in assay [6] was more than 100 µM in each case. The TGI in [7], in [8], in assay [9] and in assay [10] was more than 100 µM in each case.
Consider `NN/C(=N\S(=O)(=O)c1cccc2nsnc12)Nc1ccc(Cl)cc1`, for which the TGI in [1], in assay [2], in assay [3], in assay [4], in [5] and in assay [6] was more than 100 µM each time. The TGI in assay [7], in [8], in assay [9] and in assay [10] was more than 100 µM throughout.
Turning to `CN(C)c1ccc(/C=C2\N=C(c3ccccc3)N(/N=C3\C(=O)Nc4ccccc43)C2=O)cc1`, the TGI in assay [1], in assay [2], in assay [4], in [5], in [6] and in [7] was more than 100 µM in each case. The TGI in [8], in assay [9] and in assay [10] was more than 100 µM throughout.
With `Nc1ccc(-c2nc3ccc(Cc4ccc5nc(-c6ccc(N)cc6)oc5c4)cc3o2)cc1`, the TGI in [1], in [2], in [3], in assay [4], in [5] and in [6] was more than 100 µM each time. Further, the TGI in assay [8], in [9] and in assay [10] was more than 100 µM throughout.
In the case of `Cc1ccc(N=Nc2c(C)nn(C(=O)CC(=O)Nc3ccc(Cl)cc3)c2C)cc1C`, the TGI in assay [1], in assay [2], in [3], in [4], in assay [5] and in assay [6] was more than 100 µM each time. Besides, the TGI in assay [7], in assay [8], in assay [9] and in assay [10] was more than 100 µM each time.
On to `O=C(/C=C/c1ccc(O)cc1)c1cc(O)cc(O)c1`, for which the TGI in assay [1] was 26.5 µM; in assay [3], 50.3 µM; in assay [4], 17.3 µM; in assay [5] it was 12.3 µM; in [6], 27.5 µM; in [7] it was 32.5 µM. For the same compound, the TGI is 21.6 µM in assay [9] and 27.6 µM in assay [10].
On to `CC(C)N(C(=O)c1ccc(NCc2cc(O)ccc2O)cc1)C(C)C`, for which the TGI in [1] was found to be 34 µM; in [2] it was 82 µM; in [3], 45.3 µM; in assay [4], 30.4 µM; in assay [5], 87.8 µM; in [6], 32.6 µM. The results for the TGI in assay [7], in assay [9] and in [10] were 28.6 µM, 21.3 µM and 35.4 µM, respectively.
Take `CC(OC(C)(C)C)C(NC(=O)C(CCCCNC(=O)OC(C)(C)C)NC(=O)C(Cc1c[nH]c2ccccc12)NC(=O)C(N)Cc1ccccc1)C(=O)NC(Cc1ccccc1)C(=O)N[C@@H]1CCC[C@@H]1C(=O)O` (stereo not given in full) (H-[ξF][ξW][ξK](Boc)[ξT](tBu)[ξF]-X30): the TGI was 36.5 µM in assay [1]; more than 100 µM in [2]; 52.4 µM in assay [3]; 60 µM in assay [4]; 62.5 µM in [5]; 68.3 µM in assay [6]. The TGI in [7] was more than 100 µM; in assay [8] it was 37.2 µM; in [9], more than 100 µM; in assay [10] it was more than 100 µM.
As for `Cc1n(-c2ccccc2)c2c([n+]1Cc1ccc([N+](=O)[O-])cc1)C(=O)c1ccccc1C2=O`, the TGI amounted to 3.88 µM in assay [1]; 6.63 µM in assay [2]; 15.1 µM in [3]; 3.73 µM in assay [4]; 2.75 µM in assay [5]; 3.35 µM in assay [6]. Further, the TGI worked out at 5.7 µM in assay [7], 6.54 µM in assay [8], 26.6 µM in assay [9] and 6.43 µM in [10].
Turning to `CSc1n[nH]c2n[nH]c(C)c12`, the TGI in [1], in assay [2], in assay [3], in [4], in [5] and in assay [6] was more than 100 µM each time. In addition, the TGI in [7], in [8], in assay [9] and in [10] was more than 100 µM in each case.
With `CCOC(=O)NC(C(C(=O)OCC)C(=O)OCC)(C(F)(F)F)C(F)(F)F`, the TGI in assay [1], in assay [2], in [3], in assay [4], in assay [5] and in assay [6] was more than 100 µM throughout. In addition, the TGI in [7], in [8], in [9] and in [10] was more than 100 µM each time.
With `C=CCOCn1ccc(NC(=O)c2ccccc2)nc1=O`, the TGI in [1], in assay [2], in assay [3], in [4], in assay [5] and in assay [7] was more than 100 µM throughout. The TGI in assay [8], in [9] and in assay [10] was more than 100 µM in each case.
On to `O=C(Nc1ccc(N2C(=O)CSC2c2cccs2)cc1)c1ccc(N2C(=O)CSC2c2cccs2)cc1` (stereo not given), for which the TGI in assay [1], in [2], in [4], in assay [5], in assay [6] and in assay [7] was more than 100 µM in each case. Also, the TGI in assay [8], in assay [9] and in assay [10] was more than 100 µM each time.
Consider `Cc1ccc(C2SC(N)=Nc3c2c(C)nn3C(=O)c2ccc(Cl)cc2)cc1` (stereo not given), for which the TGI in assay [1], in assay [2], in [3], in assay [4], in assay [5] and in assay [6] was more than 10 µM in each case. The TGI in assay [7], in assay [8] and in assay [10] was more than 10 µM each time.
Consider `O=C1c2cscc2C(=O)c2c(OCc3ccccc3)ccc(OCc3ccccc3)c21`, for which the TGI in assay [1], in assay [2], in assay [3], in assay [4], in assay [5] and in assay [7] was more than 100 µM in each case. Besides, the TGI in assay [8], in [9] and in [10] was more than 100 µM each time.
Turning to `CC(=O)OC(C#N)CC(C)(C)/[N+]([O-])=[N+](\[O-])C(C)(C)CC(C#N)OC(C)=O` (stereo not given), the TGI in [2] was 30.2 µM; in [3], 55.3 µM; in assay [4], 28.8 µM; in assay [5], more than 100 µM; in assay [6], 39.5 µM; in assay [7], 39.7 µM. Moreover, the TGI in assay [8] was 28.9 µM; in assay [9] it was 63.6 µM; in assay [10], 73.3 µM.
Consider `CC1C(=O)CC[C@@]2(C)C(=O)CCCC12O` (stereo not given in full), for which the TGI in assay [1], in assay [2], in assay [3], in [4], in assay [5] and in [6] was more than 100 µM throughout. Besides, the TGI in [7], in assay [8] and in [9] was more than 100 µM throughout.
Take `CCN(CC)c1nc(=O)c(C(=O)C(C)(C)C)c(C(C)(C)C)o1`: the TGI in [1], in [2], in assay [3], in [4], in assay [5] and in assay [6] was more than 100 µM throughout. In addition, the TGI in assay [7], in assay [8] and in assay [10] was more than 100 µM each time.
Turning to `O=C1C=C(NCCc2cc(Cl)c(O)c(Cl)c2)C(=O)c2[nH]cnc21`, the TGI was more than 100 µM in [1]; more than 100 µM in assay [2]; more than 100 µM in assay [4]; 64.8 µM in assay [5]; more than 100 µM in [6]; more than 100 µM in assay [7]. The TGI in assay [8], in assay [9] and in [10] was more than 100 µM throughout.
As to `Cc1ccc(Cc2nn(C)c(=O)n2-n2cccc2)cc1`, the TGI in assay [2], in assay [3], in [4], in assay [5], in assay [6] and in [7] was more than 100 µM in each case. In addition, the TGI in [8], in [9] and in assay [10] was more than 100 µM in each case.
With `Cc1n(CC(C)C)c2c([n+]1CC(=O)c1ccc([N+](=O)[O-])cc1)C(=O)c1ccccc1C2=O`, the TGI was less than 0.0387 µM in assay [1]; less than 0.036 µM in assay [2]; 0.0523 µM in assay [3]; 0.131 µM in assay [4]; less than 0.01 µM in [5]; 0.034 µM in [6]. Moreover, the results for the TGI in assay [8], in assay [9] and in assay [10] were 0.386 µM, 30.2 µM and 0.476 µM, respectively.
Consider `N#Cc1c(-c2ccccc2)c(C#N)c(=S)n(C2OCC(O)C(O)C2O)c1N` (stereo not given), for which the TGI in assay [1], in assay [2], in assay [3], in [4], in [5] and in assay [8] was more than 100 µM throughout. Also, the TGI in [9] and in assay [10] was more than 100 µM in each case.
With `OCCN1CCN(c2nc(Nc3ccc(-c4nc5ccccc5[nH]4)cc3)c3cn[nH]c3n2)CC1`, the GI50 in assay [1] was 1.7 µM; in [2] it was 0.464 µM; in [4], 1.63 µM; in assay [5], 1.59 µM; in assay [7], 1.73 µM; in assay [9], 1.64 µM. For the same compound, the TGI in assay [1] came to 3.08 µM; in assay [2] it was 1.87 µM; in [4] it was 3.13 µM; in assay [5] it was 3.54 µM; in assay [7] it was 3.26 µM; in [9], 3.14 µM.
For the compound `Cc1cccc(Nc2nc(NNC(=O)Cc3ccccc3)nc(NNC(=O)c3ccncc3)n2)c1`, the TGI in assay [1], in assay [2], in [3], in assay [4], in assay [5] and in [7] was more than 10 µM each time. The TGI in assay [8], in [9] and in assay [10] was more than 10 µM in each case.
As to `O=C1c2ccccc2-n2c1nc1cc(Cl)ccc1c2=O`, the TGI in assay [1] was more than 100 µM; in assay [3], more than 100 µM; in [4], 76.2 µM; in assay [5], more than 100 µM; in assay [6], more than 100 µM; in assay [7] it was more than 100 µM. In addition, the TGI in assay [8], in [9] and in assay [10] was more than 100 µM throughout.
Consider `c1ccc(C2=NN[C@H](c3cn(-c4ccccc4)nc3-c3ccccc3)C2)cc1`, for which the GI50 in assay [1] is 9.11 µM; in assay [2], 9.34 µM; in [4], 3.33 µM; in [5], more than 100 µM; in assay [6] it was 2.91 µM; in [7] it was 4 µM. The GI50 in assay [8] is more than 100 µM; in assay [9], 2.87 µM; in assay [10], 3.64 µM. The TGI in [1] is more than 100 µM; in assay [2] it was more than 100 µM; in assay [4], more than 100 µM; in assay [5], more than 100 µM; in assay [6] it was 15.6 µM; in [7], more than 100 µM. Also, the TGI in [8], in assay [9] and in assay [10] was more than 100 µM in each case.
Turning to `COc1ccc2[nH]cc(CN3CCC(CO)(c4ccccc4)CC3)c2c1`, the TGI is 47.8 µM in assay [2]; more than 100 µM in [3]; 37 µM in assay [4]; 37.9 µM in [5]; more than 100 µM in assay [6]; 24 µM in [7]. Moreover, the TGI in assay [8] is 35.4 µM; in [9], 72.2 µM; in assay [10], more than 100 µM.
